Data from patent US11446253B2, “Ionic liquids for internal delivery” (priority 2017, dated 2022).
Converted amounts (≈) assume the structure as drawn. “And” between values parts separate entries of the source, which are not always exact repeats. Identical values can stand only once. “Also recorded” adds a separate entry of the source. Like-named read-outs stand apart in the source and are kept apart here. Blank lines part the entries; values can stand above or below the molecule they belong to.

Experiments:
4T1 cells = assay: 4T1 cell viability, calcein-AM assay; type: cell-based; conditions: drug solubilized in CAGE (1:1) vs DMSO
Description: In vitro anticancer efficacy of drug-loaded liposomes was determined using calcein-AM cell viability assay (Life Technologies). 4T1 cells were seeded in a 96-well cell culture plate at a density of 11,000 cells per well or 1,000 cells per well in a total volume of 100 μL media and allowed to adhere overnight. […] After incubation with drug, media was aspirated and replaced with 1 μM calcein-AM in PBS for 30 minutes at room temperature. Fluorescence intensity of intracellularly hydrolyzed calcein-AM was measured using excitation and emission wavelengths of 490 nm and 520 nm. Fractional cell inhibition was calculated by subtracting fluorescence of live cells in experimental wells from those of untreated cells and normalizing against untreated cells.

[1] = Solubility of hydrophobic drugs in CAGE; conditions: organic solvent or mixture
Caco-2 cells [2] = conditions: Caco-2, 12-48 h incubation
Description: Control wells were filled with media only. […] The plates were wrapped in foil and shaken for 20 min, then absorbance was read at 570 nm using a microplate reader (M220 Infinite Pro, Tecan Group Ltd, Morrisville, N.Y.). Absorbance readings were normalized using the non-treated cell viability values.

Caco-2 monolayers [3] = assay: FITC-insulin transport across Caco-2 monolayers; type: cell-based, human
Description: TEER was measured on a regular basis and when it reached above 200 ohms·cm^2, indicating sufficient tight junction integrity between cells, transport study was performed.
(§1) After the end of study at 5 h, the FITC-insulin concentration in the aliquots were measured using a plate reader (Tecan, Infinite M1000, Mannedorf, Switzerland) at 495/520 nm excitation/emission wavelengths and plotted as % FITC-insulin transport vs time. Furthermore, TEER was measured at every time point when aliquots were withdrawn from the transwells and plotted as % change from initial value vs time.
TEER was measured on a regular basis and when it reached above 200 ohms. cm2, indicating sufficient tight junction integrity between cells, transport study was performed.
as §1, with “[…]” for “% change from initial value”

Caco-2 monolayers [4] = system: Caco-2 monolayers
Description: For transport experiments in transwells, a 3-day rapid Caco-2 growth system was used. Cells were placed in Corning® basal seeding medium (BSM) supplemented with MITO serum+ extender and seeded at density of 400,000 cells/mL on Millicell® PCF inserts placed inside 24-well plates. 500 μL of cells containing medium was placed in apical side while 1000 μL of cell free BSM was put in the basolateral side as per manufacturer recommendation. After 24 h of incubation at 37° C., 5% CO2, the medium was replaced with same volume of enterocyte differentiation medium supplemented with MITO serum+ extender for another 2-4 days.
Before the start of the experiment, the medium in the transwells was replaced with DMEM devoid of phenol red, FBS and P/S in both the apical (200 μL) and basolateral side (600 μL) and the cells were incubated for 30 minutes. […] This was repeated at 1, 2, 3, 4 and 5 h. […] After the end of study at 5 h, fluorescence in the aliquots with LY and coumarin-6 concentrations were measured using a plate reader (BioTek Synergy NEO HTS™ microplate reader (Winooski, Vt., USA) at 485/530, 495/520 and 468/568 nm excitation/emission wavelengths, respectively. Calibration solutions for each test article were prepared and analyzed using fluorescence readings for LY and coumarin-6 which was used to plot of basolateral chamber concentration vs time plots.

Caco-2 cells [5] = assay: Tight junction integrity (TEER) in Caco-2 cells; type: cell-based, human
Description: […] Furthermore, TEER was measured at every time point when aliquots were withdrawn from the transwells and plotted as % change from initial value vs time.
TEER values were recorded for each insert. […] TEER was plotted as % change from initial value vs time.

[6] = system: non-diabetic male Wistar rats; assay: Blood glucose lowering after intrajejunal administration; type: in vivo, rat; conditions: intrajejunal controls (neat CAGE, 3 U/kg insulin-saline), 5 h
Description: Before the start of the study, the rats were anesthetized, abdominal hair clipped and the area prepped for surgery using 70% ethanol and betadine. An incision was made in the abdomen to expose the intestine. […] Each formulation was tested in 6 rats with the exception of saline which was tested in only 3 rats. Thereafter, intestinal section was placed back into the abdomen and the muscle and skin sutured. Blood glucose was determined using a commercial glucose meter in the beginning and at every 0.5 h till the end of study at 5 h. The animals remained anesthetized throughout the study, at the end of which they were euthanized and the intestinal section around the injection site was removed for further histological examination to determine toxicity, if any. […] The results were plotted as % change in blood glucose levels with respect to initial reading at t=0 vs time.
Before the start of the study, the rats were anesthetized, abdominal hair clipped, and the surgery area was prepped using 70% ethanol and betadine. An incision was made in the abdomen to expose the intestine. […] The time zero blood glucose was taken after the intestine was exposed i.e. immediately prior to the injections. Each formulation was tested in 6 rats with the exception of saline which was tested in only 3 rats. Thereafter, intestinal section was placed back into the abdomen and the muscle and skin sutured. Blood glucose was determined using a commercial glucose meter at the beginning and at every 0.5 h till the end of study at 5 h. Loss in body temperature in the animals during anesthesia was prevented by placing the animals on temperature controlled warming pads prior to surgery followed by additional towel cover after surgery. The animals remained anesthetized throughout the study and were euthanized after 5 h. At the end of study at 5 h, the intestinal section around the injection site was removed for further histological examination to determine toxicity, if any. […] The results were plotted as % change in blood glucose levels with respect to initial reading vs time. In addition, the saline group was considered as fasting control and graphs were plotted after subtracting blood glucose levels of the saline group.

[7] = system: non-diabetic male Wistar rats; assay: Blood glucose lowering after oral administration in enterically coated capsules; type: in vivo, rat; conditions: oral controls, 12 h
Description: (§2) For the oral efficacy study, adult non-diabetic male Wistar rats were fasted overnight but given free access to water. On the next day, the capsules were administered to the rats using an oral gavage followed by subcutaneous administration of 5 mg/kg metoclopramide HCl to promote gastric emptying. Blood glucose was thereafter measured using a commercial glucose meter and subsequently every hour till 12 h. Rats were fasted throughout the period of study. […] In addition, the efficacy of subcutaneously injected 2 U/kg insulin-saline was also evaluated. […] The results were plotted as percent change in blood glucose level vs time.
as §2, with “To determine the efficacy of insulin-CAGE administered through the oral route, elongated size 9 capsules were used. […] Following this, the capsules were enterically coated three times with 12.5% w/v Eudragit® L-100 dissolved in isopropanol. For” for “For”, “Next” for “On the next”, “was” for “was also”, “time. […] After 12 h of study, rats were euthanized, and small intestinal sections were collected for tissue histology.” for “time.”

Caco-2 monolayers [8] = conditions: for enhancement of 4 kDa FITC-dextran transport: various time points
Description: Before the start of the experiment, the medium in the transwells was replaced with DMEM devoid of phenol red, FBS and P/S in both the apical (200 μL) and basolateral side (600 μL) and the cells were incubated for 30 minutes. […] This was repeated at 1, 2, 3, 4 and 5 h. During the study, the transwell plates were placed inside an incubator at 37° C., 5% CO2 on a shaker rotating at 100 rpm and only taken out to remove aliquots at each time point. After the end of study at 5 h, fluorescence in the aliquots with FTIC-dextran concentrations were measured using a plate reader (BioTek Synergy NEO HTS™ microplate reader (Winooski, Vt., USA) at 485/530, 495/520 and 468/568 nm excitation/emission wavelengths, respectively. Calibration solutions for each test article were prepared and analyzed using fluorescence readings for FITC-dextran which was used to plot of basolateral chamber concentration vs time plots.

Caco-2 cells [9] = assay: GFP plasmid transfection of Caco-2 cells; type: cell-based, human; conditions: Caco-2, CAGE in lieu of lipofectamine, P3000 0.09%
Description: Caco-2 cells were seeded at 80% confluency in either 96-well half area or 24-well tissue culture treated plates a day prior to adding transfection reagents. For lipofectamine transfection studies, Lipofectamine 3000 reagent (final concs. 0.07% or 0.13%) was prepared in Opti-Mem Medium and mixed. A master mix of plasmid DNA was prepared separately by diluting the GFP plasmid (50 ng/well for 96-well half area plate or 250 ng/well for 24-well plate) in Opti-Mem Medium with P3000 enhancer reagent (final conc. 0.09% v/v). The master mix of plasmid DNA was added to tubes of the diluted lipofectamine 3000 reagent at a 1:1 ratio. The mixture was allowed to incubate for 20 minutes at room temperature to allow for the plasmid to become incorporated into the cationic lipofectamine. The DNA-lipid complex mixture was then added directly to cells in complete cell culture media at final concs. of 0.07% or 0.13%. Total volume of 96-well half area plate was 100 uL and for the 24-well plate 500 uL. This transfection mixture was removed after 3 days of incubation, washed with DPBS, and replaced with complete DMEM cell culture media.
If P3000 enhancer reagent was used, the final conc. was maintained at the same 0.09%. The transfection mixtures were removed after 1 day or 3 days, washed with DPBS, and replaced with complete DMEM cell culture media.

[10] = FITC labeled dextran, neat CAGE sample
Description: These experiments were done using skin as a model tissue. […] 50 ul of each sample was injected intradermally into one side of a 5 cm×5 cm square of porcine skin. […] The samples were incubated at RT for 2 h (while we were getting trained) and then imaged. The samples were incubated for an additional 2 h at 37° C. and imaged again. 2 h samples had different exposures (we were still learning the system). The 4 h samples were all taken at the same exposure. The size of the fluorescing area for each sample and time point was estimated by drawing a shape around the area manually using ImageJ™

[11] = in vivo; cited from earlier work
rats = conditions: cited from earlier work
physchem = conditions: organic solvent or mixture
[12] = system: non-diabetic male Wistar rats; assay: In vivo bioactivity of insulin isolated from CAGE after storage; set-up: species or system rat; conditions: for blood glucose, % of initial level: 1 U/kg subcutaneous
From the text: Prior to insulin injections, rats were fasted overnight but given free access to water and fasting continued throughout the study to eliminate variability in blood glucose due to food consumption. The results were plotted as % change in blood glucose compared to initial level vs time.

Molecule: CC[C@@]1(O)C(=O)OCc2c1cc1n(c2=O)Cc2cc3ccccc3nc2-1 [Camptothecin]
- effect on 4T1 cells (4T1 cells): just as effective as those solubilized in DMSO
- solubility [1]: 54 mg/mL (≈ 155 mM)

Molecule: Choline And GEranate [CAGE]
- IC50 (Caco-2 cells [2]): 10 mM
- enhancement of FITC-insulin transport vs no CAGE (Caco-2 monolayers [3]; 10 mM CAGE (Example 9)): 1.5-2 fold
- enhancement of insulin transport compared to insulin in saline (Caco-2 monolayers [3]; 10 mM CAGE, Caco-2, 5 h study): 3-4 fold
- higher transport of insulin compared to insulin-saline treated cells (Caco-2 monolayers [3]; 10 mM CAGE, all time points over 5 h): at least 3 times
- enhancement of FITC-insulin transport vs no CAGE (Caco-2 monolayers [3]; 25 mM CAGE): 1.5-2 fold
- enhancement of FITC-insulin transport vs no CAGE (Caco-2 monolayers [3]; 50 mM CAGE, all time points): > 10 fold
- enhancement of Lucifer yellow transport (Caco-2 monolayers [4]; 10 mM CAGE): ~2 fold
- enhancement of Lucifer yellow transport (Caco-2 monolayers [4]; 50 mM CAGE, various time points): 7-10 fold
- TEER drop (Caco-2 cells [5]; 10 mM CAGE, 1 h): 29%
- TEER decrease (Caco-2 cells [5]; 25 mM CAGE): 40-50% and ~40%
- TEER decrease (Caco-2 cells [5]; 50 mM CAGE): 40-50% and ~50%
- TEER recovery, % of initial level (Caco-2 cells [5]; 50 mM CAGE, 24 h): 58%
- decrease in blood glucose of control groups, % of initial level [6]: about 25%
- decrease in blood glucose of formulation controls [7]: about 25%
- enhancement of 4 kDa FITC-dextran transport (Caco-2 monolayers [8]; 25 mM CAGE): 2-6 fold
- enhancement of 4 kDa FITC-dextran transport (Caco-2 monolayers [8]; 50 mM CAGE): 6-13 fold
- enhancement of 4 kDa FITC-dextran transport reached (Caco-2 monolayers [8]; concentration-dependent, highest): 13 fold
- GFP plasmid transfection (Caco-2 cells [9]): can deliver DNA into cells
- area increase between 2 h and 4 h [10]: about 2 ×

Molecule: orally administered insulin solution: literature comparator of Ansari et al.
- oral bioavailability [11]: 1.7%

Molecule: C[N+](C)(C)CCO [Choline]
- oral LD50 (rats; oral): 3,400 mg/kg

- solubility (physchem): 200 mg/mL (≈ 234 mM)
Molecule: CC(=O)O[C@H]1C(=O)[C@@]2(C)[C@H]([C@H](OC(=O)c3ccccc3)[C@]3(O)C[C@H](OC(=O)[C@H](O)[C@@H](NC(=O)c4ccccc4)c4ccccc4)C(C)=C1C3(C)C)[C@]1(OC(C)=O)CO[C@@H]1C[C@@H]2O [Paclitaxel]
- effect on 4T1 cells (4T1 cells): just as effective as those solubilized in DMSO

Molecule: CC(C)=CCC/C(C)=C/C(=O)O [geranic acid]
- oral LD50 (rats; rat, in vivo, po): 3,700 mg/kg

Molecule: insulin isolated from CAGE: insulin stored in CAGE, isolated by centrifugation and washing, re-suspended in sterile saline
- bioactivity after storage ([12]; stored at 4° C. with CAGE, 4 months): did not show any loss in bioactivity; also recorded: retained its bioactivity
- blood glucose, % of initial level ([12]; stored in CAGE at RT for 3 months, 1 h): 61.57±2.38% and 62±2%
- blood glucose, % of initial level ([12]; stored in CAGE at RT for 3 months, 2 h): 61.98±3.19% and 62±3%
- drop in blood glucose ([12]; stored in CAGE at RT for 3 months, 1 and 2 h after injection): 38%

Molecule: CCCCCCCCCC(=O)[O-].[Na+] [sodium caprate, reference compound]
- tight junction integrity (TEER), % of initial levels (Caco-2 cells [5]; 10 mM sodium caprate, end of study at 24 h): 36%
